From the pKa sets of Baltruschat and Czodrowski (2020)

conditions: acidic group

SMILES | pKa
Cc1cccc(C(=O)[O-])c1O | 14.4
O=S1(=O)C=C(O)c2ccccc21 | 7.65
O=C(O)c1ccc2ccccc2[nH+]1 | 1.79
O=NCC(=O)c1ccncc1 | 7.8
Cc1ccc(O)cc1C(=O)O | 3.92
CN(C)C(=S)OCC(=O)O | 2.87
CC(=O)Sc1ccc(O)cc1 | 8.88
Oc1ccc2ccccc2c1 | 9.6
Cc1ccc(NN=C(C#N)C#N)cc1 | 6.75
Cc1ccnc(NS(=O)(=O)c2ccc(N)cc2)n1 | 6.59
O=C(O)C1CC1 | 4.83
CS(=O)c1cccc(O)c1 (stereo not given) | 8.75
CC([NH3+])C(=O)O (stereo not given) | 2.36
O=C(O)c1cccc(/C=C/[N+](=O)[O-])c1 | 3.9
CC1(C)[C@@H]2CC[C@](C(=O)O)(C2)[C@H]1O | 5.05
[O-]c1cc(O)cc[nH+]1 | 6.5
NS(=O)(=O)c1cccc(C(=O)O)c1 | 3.61
O=[N+]([O-])c1n[nH]c(-n2cncn2)n1 | 2
O=C(O)C#CI | 2
C=C(C)/C=C(\O)C=C(C)C | 10.8
O=C(O)C1=C/C=C\C=C/C=C\1 | 4.4
C[NH+]1C[C@@H](C(=O)O)C[C@@]2(O)c3cccc4[nH]cc(c34)C[C@@H]12 | 3.38

SMILES | pKa
Cc1ccc(S(=O)(=O)NCCC(=[NH2+])N(C)C)cc1 | 9.84
c1cnc2nc[nH]c2c1 | 11.1
C=C(C)[C@H]1C[NH2+][C@H](C(=O)[O-])[C@H]1CC(=O)O | 4.43
CC(O)[C@@H]1C[NH2+][C@H](C(=O)[O-])[C@H]1CC(=O)O (stereo not given in full) | 4.35
C[N+](C)(C)[CH2][Sn]([CH3])([CH3])[CH3] | 10.6
C[NH2+]CCCC(=O)O | 4.03
C[NH+](C)CCc1c[nH]c2cccc(O)c12 | 8.47
C[C@H]1O[C@H](O[C@H]2CC[C@H]([n+]3ccc(N)nc3O)O[C@@H]2C)[C@H](O)[C@@H](O)[C@@H]1[NH+](C)C | 3.9
O=C(O)CSc1ccccc1 | 3.52
Nc1nc(N)[nH+]c(O)n1 | 4.5
O=C(O)CSc1cccc([N+](=O)[O-])c1 | 3.4
O=C1Cc2c1ccc(O)c2Br | 5.75
N#Cc1ccc(O)c(O)c1 | 7.72
COC(=O)CC(=N/[O-])/C(C)=N/O | 11.6
O=C(c1ccc(Cl)cc1)c1cc[nH]n1 | 11.9
O=C(O)/C=C/c1c[nH]c[nH+]1 | 3.5
Cc1ccc(O)c(C(C)C)c1 | 10.7
CC[C@@H]1OC(=O)[C@@H](C)[C@H](O)[C@@H](C)[C@H](O[C@H]2O[C@@H](C)C[C@@H]([N+](C)(C)O)[C@@H]2O)[C@]2(C)C[C@H](C)C3(O[C@]1(C)C=C3C)O2 | 4.3
[O-]c1[nH+]c(O)c(Br)c[n+]1[C@H]1O[C@@H](CO)[C@H](O)[C@@H]1O | -0.9
C[C@@]12CC(=O)N[C@]1(CCC(=O)O)C(=O)NC2=O | 4.4
COc1cc(CO)ccc1O | 9.79
O=S(=O)(Cc1ccccc1)c1ncn[nH]1 | 6.23

SMILES | pKa
COc1ccc(O)cc1 | 10.2
C[NH+](C)CCCCCCCCNC(=O)/C=N/O | 8.97
CC(=S)NCc1ccccc1 | 13
Cc1csc(C(=O)O)c1 | 3.66
O=C(O)C1(O)CCCCC1 | 4.18
O=C([O-])/C=C/C([O-])=C/C(=O)CC(=O)[O-] | 10.5
OCC[NH+](CCc1nnn[nH]1)CCc1nnn[nH]1 | 4.23
Oc1cc[n+](O)cc1 | 2.4
Nc1ccc(S(=O)(=O)Nc2cccc[n+]2[O-])cc1 | 5.2
CC(=O)N(C)CC(=O)O | 3.16
CN(C)c1nc(/N=N/O)nn1C | 5.94
Cc1cc(O)cc(C)[o+]1 | 0.38
CCO[C@H]1C[C@@H]1C(=O)O | 4.46
Cc1cc(=O)oc2cc(O)ccc12 | 7.8
CC(=O)NC(CS)C(=O)[O-] (stereo not given) | 9.62
CC(=O)c1ccccc1O | 10.4
C[NH+]1[C@H]2CC=C(C(=O)O)[C@@H]1CC2 | 3.93
N#CC(C#N)=C(C#N)NC(C#N)=C(C#N)C#N | 2.1
CC1=CC(=Nc2ccc(O)cc2)C=C(C)C1=O | 8.9
NC(=O)C(N)CO (stereo not given) | 7.3
O=C(O)c1ccc(O)cc1 | 4.57
CN(C)C(=O)n1nc(C(C)(C)C)nc1SCC(=O)O | 3.49

SMILES | pKa
O=C([O-])c1ccc([N+](=O)[O-])cc1O | 10.3
CCc1c(-c2ccccc2)nn(C2CC[NH+](C)CC2)c1O | 5.9
O=C(O)[C@@H]1CC[C@@H](C(=O)O)[Se][Se]1 | 2.85
CC(C)CCOc1ccccc1/C=C\C(=O)O | 4.38
CC(C)N(C(=S)S)C(C)C | 4.3
O/N=C/c1ccncc1 | 9.91
CCCCCCC(=O)O | 4.86
COc1ccccc1C(=O)O | 4.05
OC(CBr)(Oc1ccccc1)c1ccccc1 (stereo not given) | 11.2
C[n+]1ccn(CCC[n+]2ccc(/C=N/O)cc2)c1 | 8.05
CS(=O)c1ccc(O)cc1 (stereo not given) | 8.28
O=C(O)c1c2ccccc2cc2ccccc12 | 3.65
CC/C(N=O)=N/O | 5.8
O=C(O)c1cc[n+]([O-])cc1 | 2.86
O=C(O)C#Cc1ccccc1 | 2.26
CC(=O)C1CCCC1=O (stereo not given) | 7.82
Oc1cccc(O)c1 | 9.56
NS(=O)(=O)C(F)(F)Br | 6.53
O=S(=O)(NCc1ccccc1)c1ccc(Br)cc1 | 10.7
Cc1cc(Cc2cc(O)ccc2C)c(O)c([N+](=O)[O-])c1 | 7.93
CC(C)(C)CCCCc1ccc(O)cc1 | 11.2
O=C(O)C(=O)C(c1ccccc1)c1ccccc1 | 2.78

same assay, conditions: basic group

SMILES | pKa
COc1cccnc1 | 4.89
CCCCCCCCCCCCN(CC(C)O)CC(O)CC (stereo not given) | 6.2
CC1CNCC[NH2+]1 (stereo not given) | 5.46
CCC1CSC(C(C)C)=N1 (stereo not given) | 5.28
Cc1ccc(NN=C(C#N)C#N)cc1 | -0.83
CN(C)c1ccc(C2=CN3CCC2CC3)cc1 | 9.82
C[NH+](C)C[C@H]1[C@@H]2CC[C@@](C)([C@H]1N)C2(C)C | 6.59
N=C(N)Nc1nc(N)nc(NC(N)=[NH2+])n1 | 7
Cc1ccnc(NS(=O)(=O)c2ccc(N)cc2)n1 | 2.08
CC(=O)OCC1CN2CCC1CC2 (stereo not given) | 10.3
C[n+]1ccc(NN)c2ccccc21 | 2.61
N[C@@H]1CCC[C@@H]1O | 9.7
NCCCc1cccnc1 | 10.1
Cn1ncc2c(NC(C)(C)CC(C)(C)C)ncnc21 | 3.96
Cc1nn(C)c(C)c1C | 4.48
O=P([O-])([O-])C(NCc1ccccn1)c1ccccc1[O-] (stereo not given) | 12.1
CCN(CC)CC(=O)Nc1ccc([N+](=O)[O-])cc1 | 8.05
Cc1ccc(C2CCC[NH+]2C)cn1 (stereo not given) | 3.78
O=[PH]([O-])C([NH2+]Cc1ccncc1)c1ccccc1O (stereo not given) | 3.25
CCCCCCn1ccnc1 | 7.2
c1cnc2nc[nH]c2c1 | 3.95
O=[N+]([O-])c1cccc2cnccc12 | 3.46
Cc1ccc(CNCCN)cc1 | 9.41
CCN(CC)CC(O)C[NH+](CC)CC | 7.74
C#C[C@]1(O)C[C@@H](C)N[C@@H]2CCCC[C@H]21 | 9.73
CNC(=O)/C=C(\c1ccc2nc(N)n(C(C)C)c2c1)c1cccc(F)c1F | 6.69

SMILES | pKa
NC1CCN(Cc2ccccc2)CC1 | 9.79
Nc1ccc(-c2ncc(-c3ccccc3)o2)cc1 | 3.01
CC(C)NNC1CC[NH+](C(C)C)CC1 | 6.3
CNC(C)(C)C(=O)[O-] | 10.8
Nc1cc(C[NH3+])ccc1Cl | 3.71
CN(C)c1ccc(N(C)C)cc1 | 6.37
CC(=O)N1CCN(C)CC1 | 7.1
CC[NH+](CC)CCNc1cc(C)nc(N)n1 | 7.6
Cn1c(=O)n(C)c2c(N)cccc21 | 3.06
CN(C)c1ccc(Cl)cc1 | 4.39
CN1CCC2Cc3ccc(O)c(O)c3C3CCCC1C23 (stereo not given) | 7.58
NCc1ccc(C(=O)[O-])cc1 | 9.64
CC[NH+](C)CCOCCN(C)C | 7.96
Oc1cccc(C2NCCS2)c1 (stereo not given) | 5.2
CC(=O)N=C(N(C)C)N(C)C | 7.5
CN(C)/C=N/c1ccccc1[N+](=O)[O-] | 5.65
CCc1ccc(N)cc1 | 5.16
C[C@@H](Cc1ccccc1)N(C)C | 9.4
CCCCCCN(CC(O)CC)CC(O)CC (stereo not given) | 8.6
Cc1cccc(C)c1N | 3.84
C[C@H]([C@H](O)c1ccccc1)N(C)C | 10
CCc1cc(-c2ccccc2)nnc1NCCN1CCOCC1 | 7.08
CC(C)(C)c1cccc(C(C)(C)C)n1 | 4.95
C(CN1CCOCC1)C[NH+]1CCOCC1 | 6.25
CSc1ccc(N)c(I)c1 | 2.45
CCc1nc2ccccc2[nH]1 | 6.2

SMILES | pKa
CC(C)CN(CCS)CC(C)C | 8.23
NCCCCCCCCC(=O)[O-] | 11
[NH3+]CCC(=O)N[C@@H](Cc1cnc[nH]1)C(=O)[O-] | 6.74
NCCC(=O)NC(Cc1c[nH]cn1)C(=O)[O-] (stereo not given) | 9.48
Cc1ccc(-c2cnc(-c3ccc(Cl)cc3)o2)cc1 | 0.58
[NH3+]C(c1ncc[nH]1)c1ncc[nH]1 | 4.07
O=C([O-])C1CSCN1 (stereo not given) | 6.23
CN1CCN(C(c2ccccc2)c2ccc(Cl)cc2)CC1 (stereo not given) | 7.81
Nc1ccc2c(c1)-c1c(ccc3ccccc13)C2 | 4.67
C[C@@H]1[C@@H]2Cc3ccc(O)cc3[C@@]1(C)CCN2CCF | 8.35
Nc1cccnc1N | 6.84
O/N=C/c1ccncc1 | 4.58
Nc1ccc2cc3ccccc3nc2c1 | 8.04
CCCCCCNCc1ccc(C)cc1 | 10.2
CC(=O)n1ccnc1Cc1[nH]cc[nH+]1 | 1.93
C[C@@H](CN)c1ccccc1 | 9.94
Clc1ccc(CNc2ncnc3[nH]ncc23)cc1 | 3.96
CN(C)CC(P(=O)([O-])[O-])P(=O)([O-])[O-] | 8.98
NCC(N)C[NH3+] | 7.95
Cc1c(Cn2ccnc2)oc2ccc(C(=O)[O-])cc12 | 6.08
NCCC(=O)N[C@@H](Cc1c[nH]cn1)C(=O)[O-] | 9.61
Cc1cc(C)c(CN)cc1N | 9.77
CN1C=C(C#N)CCC1 | 2.7
O=C(CCCCN1CCOCC1)c1ccccc1 | 7.5
COc1ccccc1C(=O)N[C@@H]1C[C@H]2CC[C@@H](C1)N2Cc1ccccc1 | 8.88
